Experimental data published in US5565432A (American Home Products Corporation, priority 1994, dated 1996).
Counter-ions that a name gives are not always drawn.

Legend:
normal human plasma = assay: Anticoagulant activity, partial thromboplastin time (APTT) assay; settings: for Anticoagulation Activity (APTT) Relative to Heparin: ratio>1 indicates weaker activity relative to heparin on a μg/mL basis
Protocol: The anticlotting activity of the compounds of this invention were evaluated in a partial thromboplastin time (APTT) assay using normal human plasma collected from 5 donors using the procedure of Fenichel et. al. (Clin. Chem. 1964, 10, 69). A BBL Fibrometer automatic precesion coagulation timer utilizing a 0.3 ml probe was employed. An Ellagic acid activated partial thromboplastin was used for these experiments. This reagent is added to human citrated plasma equilibrated at 37° C. in a plastic well in the clot timer. Calcium at 37° C. is added, the clot timer is started and the time for fibrin clot formation (in seconds) was recorded. The effect of the compounds, added to plasma, over a concentration of 12.5-200 μg/mL was determined. […] An unfractionated heparin comparator was used over the concentration range of 1.25-10 μg/mL. Clotting tests at all concentrations were run in triplicate. Analysis of variance for a randomized block design was used to determine the significance of differences observed in the clotting times. The potency is reported relative to heparin wherein ratio>1 indicates weaker activity relative to heparin on a μg/mL basis.

[1] = test system: human aortic endothelial cells; assay: Effect on human endothelial cell growth; assay type: cell-based; settings: driven by 2% FBS, at doses inhibitory towards human smooth muscle cell proliferation driven by 10% FBS (FIG. 1)
Protocol: The ability of the compounds of the present invention to inhibit smooth muscle cell proliferation and modulate endothelial cell growth was established using isolated aortic cells obtained from commercial sources or, for certain species, prepared in-house. Cell lines used in this study include human and porcine aortic smooth muscle cells and human aortic endothelial cells. Human aortic cell lines were obtained from Clonetics Corporation (San Diego).
Cells were assayed in early passage (generally passage 3-7) at sub-confluent conditions. Cultures were grown in 16 mm (24 well) multi-well culture dishes in media 199 supplemented with 10% fetal bovine serum and 2% antibiotic/antimycotic. At sub-confluence, the cells were placed in a defined serum free medium (AIM-V; Gibco) for 24-48 h prior to initiating the experimental protocol.
Growth factor and serum stimulations were optimized for each cell type.
Compounds were added to each well at 50 fold dilution (20 μL/well) and the plates were incubated for 24-36 h at 37° C. in 5% CO2. […] Compounds were routinely assayed at 1, 10, and 100 μM. […]
Data was obtained, in triplicate, for both control and experimental samples. […] Data was expressed as a percent of control from which IC50 s could be determined. […]

[2] = test system: common carotid artery, intimal thickening; assay: Experimental model of restenosis (air-dried carotid artery), intimal thickening; assay type: in vivo, Male Sprague-Dawley Rats; settings: in comparison to untreated animals; dose of 125 μg/mL, i.v. osmotic pump, 2 weeks
Source text: Male Sprague-Dawley Rats weighing between 0.3-0.4 kg were housed in polycarbonate cages (2 per box) with corn cob bedding and provided with Purina 5001 rat chow and water (ad. lib. A 12 hr/12 hr light: dark cycle was maintained with light on at 7:00 A.M). After acclimation, rats were randomly assigned to treatment groups (12 per group). The rats were anesthetized with Ketamine, Acepromazone, and Xylazine. The anterior portion of the neck was shaved, a 3 cm incision was made along the midline, and the trachea was exposed by gently parting the underlying tissues and muscle. A retractor was inserted to hold the muscles and tissues aside and the common carotid artery was isolated from the surrounding tissue. A 2 cm segment of the right common carotid artery was lifted such that an 11 mm approximator was placed on the vessel at about […] before the bifurcation of the internal and external branches of the carotid artery. The 5 mm segment of the common carotid artery between the clamps of the approximator was punctured at about 0.5 mm from the edge of each clamp with a 30 G needle and a gentle stream of isotonic saline was injected through the isolated segment to flush out any blood. […]
Two weeks following surgery, the rats were sacrificed via anesthetized exsanquination. […] The cross sections were photographed and the arterial media and intima were digitized and measured. […]

restenosis = settings: prior art; cited from earlier work
smooth muscle cell = settings: prior art; cited from earlier work

Molecule: Cc1ccc(CO[C@@H]2O[C@H](COS(=O)(=O)O)[C@@H](O[C@@H]3O[C@H](COS(=O)(=O)O)[C@@H](OS(=O)(=O)O)[C@H](OS(=O)(=O)O)[C@H]3OS(=O)(=O)O)[C@H](OS(=O)(=O)O)[C@H]2OS(=O)(=O)O)cc1NC(=O)c1cc(C(=O)Nc2cc(CO[C@@H]3O[C@H](COS(=O)(=O)O)[C@@H](O[C@@H]4O[C@H](COS(=O)(=O)O)[C@@H](OS(=O)(=O)O)[C@H](OS(=O)(=O)O)[C@H]4OS(=O)(=O)O)[C@H](OS(=O)(=O)O)[C@H]3OS(=O)(=O)O)ccc2C)cc(C(=O)Nc2cc(CO[C@@H]3O[C@H](COS(=O)(=O)O)[C@@H](O[C@@H]4O[C@H](COS(=O)(=O)O)[C@@H](OS(=O)(=O)O)[C@H](OS(=O)(=O)O)[C@H]4OS(=O)(=O)O)[C@H](OS(=O)(=O)O)[C@H]3OS(=O)(=O)O)ccc2C)c1 [Example 9, Benzene-1,3,5-tricarboxylic Acid Tris{[2-methyl-5-(hepta-O-sulfato-β-cellobiosyloxymethyl)phenyl]amide}Heneicosasodium Salt]
- Anticoagulation Activity (APTT), in words (normal human plasma; at 25-200 μg/mL): no signifcant

Molecule: O=C(Nc1cc(CO[C@@H]2O[C@H](COS(=O)(=O)O)[C@@H](O[C@@H]3O[C@H](COS(=O)(=O)O)[C@@H](OS(=O)(=O)O)[C@H](OS(=O)(=O)O)[C@H]3OS(=O)(=O)O)[C@H](OS(=O)(=O)O)[C@H]2OS(=O)(=O)O)ccc1Cl)c1cc(C(=O)Nc2cc(CO[C@@H]3O[C@H](COS(=O)(=O)O)[C@@H](O[C@@H]4O[C@H](COS(=O)(=O)O)[C@@H](OS(=O)(=O)O)[C@H](OS(=O)(=O)O)[C@H]4OS(=O)(=O)O)[C@H](OS(=O)(=O)O)[C@H]3OS(=O)(=O)O)ccc2Cl)cc(C(=O)Nc2cc(CO[C@@H]3O[C@H](COS(=O)(=O)O)[C@@H](O[C@@H]4O[C@H](COS(=O)(=O)O)[C@@H](OS(=O)(=O)O)[C@H](OS(=O)(=O)O)[C@H]4OS(=O)(=O)O)[C@H](OS(=O)(=O)O)[C@H]3OS(=O)(=O)O)ccc2Cl)c1 [Example 11]
- Anticoagulation Activity (APTT) Relative to Heparin (normal human plasma): 72
- human endothelial cell growth [1]: enhance human endothelial cell growth
- inhibition of intimal thickening [2]: 50%

Molecule: O=C(Nc1cc(CO[C@@H]2O[C@H](COS(=O)(=O)O)[C@@H](O[C@@H]3O[C@H](COS(=O)(=O)O)[C@@H](OS(=O)(=O)O)[C@H](OS(=O)(=O)O)[C@H]3OS(=O)(=O)O)[C@H](OS(=O)(=O)O)[C@H]2OS(=O)(=O)O)cc(CO[C@@H]2O[C@H](COS(=O)(=O)O)[C@@H](O[C@@H]3O[C@H](COS(=O)(=O)O)[C@@H](OS(=O)(=O)O)[C@H](OS(=O)(=O)O)[C@H]3OS(=O)(=O)O)[C@H](OS(=O)(=O)O)[C@H]2OS(=O)(=O)O)c1)c1cc(C(=O)Nc2cc(CO[C@@H]3O[C@H](COS(=O)(=O)O)[C@@H](O[C@@H]4O[C@H](COS(=O)(=O)O)[C@@H](OS(=O)(=O)O)[C@H](OS(=O)(=O)O)[C@H]4OS(=O)(=O)O)[C@H](OS(=O)(=O)O)[C@H]3OS(=O)(=O)O)cc(CO[C@@H]3O[C@H](COS(=O)(=O)O)[C@@H](O[C@@H]4O[C@H](COS(=O)(=O)O)[C@@H](OS(=O)(=O)O)[C@H](OS(=O)(=O)O)[C@H]4OS(=O)(=O)O)[C@H](OS(=O)(=O)O)[C@H]3OS(=O)(=O)O)c2)cc(C(=O)Nc2cc(CO[C@@H]3O[C@H](COS(=O)(=O)O)[C@@H](O[C@@H]4O[C@H](COS(=O)(=O)O)[C@@H](OS(=O)(=O)O)[C@H](OS(=O)(=O)O)[C@H]4OS(=O)(=O)O)[C@H](OS(=O)(=O)O)[C@H]3OS(=O)(=O)O)cc(CO[C@@H]3O[C@H](COS(=O)(=O)O)[C@@H](O[C@@H]4O[C@H](COS(=O)(=O)O)[C@@H](OS(=O)(=O)O)[C@H](OS(=O)(=O)O)[C@H]4OS(=O)(=O)O)[C@H](OS(=O)(=O)O)[C@H]3OS(=O)(=O)O)c2)c1 [Example 14, Benzene-1,3,5-tricarboxylic Acid Tris{[3,5-bis-(hepta-O-sulfato-β-D-cellobiosyloxymethyl)phenyl]amide}Tetratetracontasodium Salt]
- Anticoagulation Activity (APTT) Relative to Heparin (normal human plasma): 3.1

Molecule: Beta-Cyclodextrin tetradecasulfate
- inhibition of restenosis (literature) (restenosis): effective inhibitor of restenosis
- SMC proliferation inhibition (literature) (smooth muscle cell): smooth muscle cell proliferation inhibitor
